Test results as given in patent US10570458B2, “Methods for diagnosis, prognosis and treatment of primary and metastatic basal-like breast cancer and other cancer types” (ONCONOSTIC TECHNOLOGIES, INC., priority 2009, dated 2020).
“Also recorded” adds a separate entry of the source.

Assays:
triple-negative patients = conditions: patients were a mix of basal-like positive and negative; cited from earlier work
MCF-7 cells = experiment: MTT cell proliferation assay, FOXC1-overexpressing vs control cells; assay type: cell-based, human
Method: MCF-7 and T47D human breast cancer cell lines were obtained from the Breast Center at Baylor College of Medicine. Cells were routinely maintained in Dulbecco's modified Eagle's medium (DMEM) supplemented with 10% fetal bovine serum (FBS), 2 mM glutamine, 50 IU/ml of penicillin, 50 μg/ml of streptomycin, and 10 μg/ml insulin. Cells were kept at 37° C. in a humidified incubator with 5% CO2. Tamoxifen and 17β-estradiol were from Sigma (St Louis, Mo.). The IKK small molecule inhibitor BMS-345541 was purchased from Calbiochem (Gibbstown, N.J.). For experiments involving estradiol and tamoxifen, cells were serum-starved overnight and then stimulated with the ER ligands for different time periods prior to cell proliferation assays. Cell viability was assessed by the 3-(4,5-dimethylthiazol-2-yl)-2,5-diphenyltetrazolium (MTT) assay. Cells were seeded in 24-well plates at 30% confluence and the MTT assay was performed one, two, three and four days after treatment. For each assay, 50 μl of MTT (5 mg/ml) were added to each well and cells were incubated at 37° C. for an additional 4 h. After centrifugation, the supernatant was carefully aspirated and 300 μl of DMSO (Sigma) were added to each well. Immediately after resolubilization, all plates were scanned at 575 nm on a microplate reader. The absorbance (A) value represented the number of live cells.

[1] = test system: ERα, PR, and IRS-1 in FOXC1-overexpressing MCF-7 cells; experiment: Immunoblotting of ERα, PR and IRS-1; assay type: cell-based, human; conditions: 5 μM, 24 h
Method: Whole cell lysates for western blotting were generated by cell lysis buffer (50 mM Tris-HCl, pH 7.4, 150 mM NaCl, 2 mM EDTA, 1% NP-40, 10% glycerol) supplemented with a protease inhibitor cocktail (Sigma, St Louis, Mo.). Equal amounts of protein were separated by 10% SDS-PAGE and then transferred onto a nitrocellulose membrane. The remaining steps were conducted according to a standard immunoblotting protocol (Qu et al., 2009). Immunoblotting was done with polyclonal antibodies against p65, FOXC1, IRS1 (1:200; Santa Cruz Biotechnology), polyclonal antibodies against phospho-p65, p50, IκBα (1:1000; Cell Signal), or monoclonal antibodies against ERα (1:500; Novocastra Laboratories, Newcastle upon Tyne, UK), PR (1:500; DAKO, Carpinteria, Calif.). Anti-β actin (Sigma) was used at a 1:10000 dilution. After the primary antibody incubation, the membrane was again washed with PBST three times (5 min each) and then incubated with a horseradish peroxidase (HRP)-linked secondary antibody (Amersham, Piscataway, N.J.) at a dilution of 1:4000 in blocking solution. The membrane was washed and bands were visualized using chemiluminescence assays.

[2] = test system: BT549 basal-like/claudin-low cells; experiment: Cell viability (relative survival) with increasing doses of iCRT3; assay type: cell-based, human; conditions: BT549 (high constitutive FOXC1 expressor) compared to MCF7 (luminal) or SKBR3 (HER2) cell lines
Source text: (§1) FIGS. 45A-45B show the relative survival of representative breast cancer cell lines upon inhibition of Wnt/β catenin signaling with increasing doses of the inhibitor iCRT3.

[3] = test system: HS578T basal-like/claudin-low cells; experiment: as above; assay type: cell-based, human; conditions: HS578T (high constitutive FOXC1 expressor) compared to MCF7 (luminal) or SKBR3 (HER2) cell lines
Source text: as §1

FOXC1 expression = FOXC1 expression upon inhibition of Wnt/β catenin signaling; assay type: cell-based, human; conditions: Wnt inhibition, dose and time dependent, particularly pronounced in BT549 mammosphere cultures
[4] = test system: BT549 cancer stem cells in mammosphere culture; experiment: Mammosphere formation; assay type: cell-based, human
Source text: FIGS. 47A-47B show mammosphere formation upon inhibition of Wnt/β catenin signaling by iCRT-3.
FIGS. 49A-49B show mammosphere formation upon simultaneous inhibition of Wnt/β catenin signaling by addition of iCRT-3 and inhibition of NF-κB signaling.

[5] = test system: stem related genes and NF-κB signaling in BT549 mammosphere cells; experiment: qRT-PCR profiling of residual mammosphere cells after Wnt inhibition; assay type: cell-based, human
Source text: FIG. 48 is a bar graph showing the fold change of mRNA expression of the stem related genes BMI-1, FOXC1, KIT, NANOG, OCT4, and SOX2 upon inhibition of Wnt/β catenin signaling by addition of iCRT-3 on day 4 (left hand bar) and day 7 (right hand bar).

[6] = test system: FOXC1 expression in MDA-MB-231 basal-like/claudin-low cell line; experiment: FOXC1 expression upon exposure to Wnt3a; assay type: cell-based, human; conditions: MDA-MB-231 (low constitutive FOXC1 expressor) exposed to canonical Wnt ligand
Source text: FIGS. 44A-44D show the correlation between FOXC1 expression and Wnt activity upon biological and pharmacologic inhibition and stimulation with a natural ligand.

For `CC(C)C[C@H](NC(=O)[C@H](Cc1ccccc1)NC(=O)c1cnccn1)B(O)O` [bortezomib], the “outcome of clinical trial” value (triple-negative patients) is given as “inconclusive results”.

In the case of `Cc1ccc2nc(NCCN)c3ncc(C)n3c2c1` [BMS-345541], the “sensitivity of cell proliferation to NF-κB inhibition” value (MCF-7 cells; FOXC1-overexpressing vs vector MCF-7 cells, 5 μM) is reported as “sensitized” and the “levels of ERα, PR, and IRS-1” value [1] is reported as “elevated levels”.

In the case of `CCc1ccc(-c2nc(CSCC(=O)NCCc3ccccc3)c(C)o2)cc1` [iCRT3, 2-[[[2-(4-ethylphenyl)-5-methyl-4-oxazolyl]methyl]thio]-N-(2-phenylethyl)acetamide], the “sensitivity to treatment (decreased cell viability)” value [2] is reported as “more sensitive”, the “sensitivity to treatment (decreased cell viability)” value [3] is reported as “more sensitive” and the FOXC1 expression level (FOXC1 expression) is reported as “decrease in FOXC1 expression level”. The FOXC1 expression level (FOXC1 expression; listed as iCRT-3) was “decreased FOXC1 expression”, the “mammosphere formation ability of persisting cells” value ([4]; BT549, Wnt inhibition alone, after an initial 4 day incubation period) was “renewed enhancement of mammosphere formation ability” and the mammosphere formation efficiency ([4]; BT549 cells, Wnt inhibition alone vs DMSO) was “reduced mammosphere formation efficiency”. The FOXC1 positive cells ([5]; cells persisting after Wnt inhibition) was “depletion of FOXC1 positive cells”, the “expression of embryonic stem cell transcription factors OCT4, SOX2 and NANOG” value ([5]; cells persisting after Wnt inhibition (day 4, day 7)) was “pronounced up regulation” and the “NF-κB signaling (qRT-PCR based pathway activation analysis)” value ([5]; residual cells that withstood Wnt inhibition) was “marked activation of NF-κB signaling”.

With `CC/C(=C(\c1ccccc1)c1ccc(OCCN(C)C)cc1)c1ccccc1` [tamoxifen] the “sensitivity of cell proliferation to antiestrogen treatment” value (MCF-7 cells; FOXC1-overexpressing vs control MCF-7 cells, 10^−6 M, regular medium) was “less sensitive”.

For `C[C@]12CC[C@@H]3c4ccc(O)cc4CC[C@H]3[C@@H]1CC[C@@H]2O` [estradiol, 17β-estradiol], the “increase of cell growth induced by treatment” value (MCF-7 cells; FOXC1-overexpressing vs control MCF-7 cells, serum-starved, 10^−8 M) was “diminished the increase of cell growth”.

B1: Wnt3a: a canonical Wnt signaling ligand (protein, UniProt P56704 19-352, looked up)
Protein Wnt-3a: SYPIWWSLAVGPQYSSLGSQPILCASIPGLVPKQLRFCRNYVEIMPSVAEGIKIGIQECQHQFRGRRWNCTTVHDSLAIFGPVLDKATRESAFVHAIASAGVAFAVTRSCAEGTAAICGCSSRHQGSPGKGWKWGGCSEDIEFGGMVSREFADARENRPDARSAMNRHNNEAGRQAIASHMHLKCKCHGLSGSCEVKTCWWSQPDFRAIGDFLKDKYDSASEMVVEKHRESRGWVETLRPRYTYFKVPTERDLVYYEASPNFCEPNPETGSFGTRDRTCNVSSHGIDGCDLLCCGRGHNARAERRREKCRCVFHWCCYVSCQECTRVYDVHTCK
In the case of B1, the FOXC1 expression [6] is reported as “increased expression of FOXC1; also recorded: increase in FOXC1 expression”.
